These results are taken from patent US10774064B2 (Cadent Therapeutics, Inc., priority 2016, dated 2020).

For this experiment, the target named is T1, small-conductance Ca2+-activated K+ channels (SK channels, subtype 2) (Homo sapiens, UniProt Q9H2S1).
T1 construct: expressed in transfected cells; host or cells: HEK293
The experiment in a line: whole-cell patch-clamp of ionic current through SK2 channels in HEK293 cells (SC100). It counts as cell-based. To be noted: concentration that increases the basal current by 100%; HEK293 cells expressing SK2 channels. On the procedure: The biological activity was determined as follows. The ionic current through small-conductance Ca^2+-activated K^+ channels (SK channels, subtype 2) was measured using the whole-cell configuration of the patch-clamp technique in a patch-clamp set-up using HEK293 tissue culture cells expressing SK2 channels as described in Hougaard et al., British Journal of Pharmacology 151, 655-665, May 8, 2007, the entire teachings of which are incorporated herein by reference. In one aspect, a compound is defined to be an SK PAM if the compound increases current in this assay, for example, if the SC100 value of the compound is less than or equal to 10 μM as determined by this assay. The SC100 value is defined to be the concentration of compound that increases the basal current by 100%.

Turning to `Cc1cc(C)n(-c2nc(NC3CCC(F)(F)CC3)cc(-n3cccn3)n2)n1` [Compound 117, N-(4,4-difluorocyclohexyl)-2-(3,5-dimethyl-1H-pyrazol-1-yl)-6-(1H-pyrazol-1-yl)pyrimidin-4-amine], the SC100 entry is “++ (++ means 200 nM-1000 nM)”.

On to `Cc1cc(C)n(-c2nc3c(c(NC4CCC(F)(F)CC4)n2)CCN(CCO)C3)n1` [Compound 118, 2-(4-((4,4-difluorocyclohexyl)amino)-2-(3,5-dimethyl-1H-pyrazol-1-yl)-5,8-dihydropyrido[3,4-d]pyrimidin-7(6H)-yl)ethan-1-ol], for which the SC100 result is on record as “+ (+ means >1 uM)”. Consider `Cc1cc(-n2ccc(C)n2)nc(NC2CCC(F)(F)CC2)n1` [Compound 120, N-(4,4-difluorocyclohexyl)-4-methyl-6-(3-methyl-1H-pyrazol-1-yl)pyrimidin-2-amine], for which the SC100 entry is on record as “++ (++ means 200 nM-1000 nM)”. For the compound `Cc1cc(C)n(-c2nc3c(c(NC4CCC(F)(F)CC4)n2)CCN(CC(N)=O)C3)n1` [Compound 121, 2-(4-((4,4-difluorocyclohexyl)amino)-2-(3,5-dimethyl-1H-pyrazol-1-yl)-5,8-dihydropyrido[3,4-d]pyrimidin-7(6H)-yl)acetamide], the SC100 result is “+ (+ means >1 uM)”. Consider `Cc1cc(C)n(-c2nc3c(c(NC4CCC(F)(F)CC4)n2)CCN(CC#N)C3)n1` [Compound 122, 2-(4-((4,4-difluorocyclohexyl)amino)-2-(3,5-dimethyl-1H-pyrazol-1-yl)-5,8-dihydropyrido [3,4-d]pyrimidin-7(6H)-yl)acetonitrile], for which the SC100 result is on record as “+ (+ means >1 uM)”. Then `Cc1cc(C)n(-c2nc3c(c(NC4CCC(F)(F)CC4)n2)CCN(C(C)C)C3)n1` [Compound 123, N-(4,4-difluorocyclohexyl)-2-(3,5-dimethyl-1H-pyrazol-1-yl)-7-isopropyl-5,6,7,8-tetrahydropyrido[3,4-d]pyrimidin-4-amine], with “+ (+ means >1 uM)”; and `Cc1cc(C)n(-c2nc(NC3CCC(F)(F)CC3)cc(NC(C)c3nccs3)n2)n1` (stereo not shown) [Compound 124, N4-(4,4-difluorocyclohexyl)-2-(3,5-dimethyl-1H-pyrazol-1-yl)-N6-(1-(thiazol-2-yl)ethyl)pyrimidine-4,6-diamine], with “+ (+ means >1 uM)”. Take `Cc1cc(C)n(-c2nc(NC3CCC(F)(F)CC3)cc(NC3CCN(C)C3=O)n2)n1` (stereo not shown) [Compound 125, 3-((6-((4,4-difluorocyclohexyl)amino)-2-(3,5-dimethyl-1H-pyrazol-1-yl)pyrimidin-4-yl)amino)-1-methylpyrrolidin-2-one]: the SC100 entry is on record as “+ (+ means >1 uM)”. `Cc1cc(C)n(-c2cc(-n3cccn3)cc(NC3CCC(F)(F)CC3)n2)n1` [Compound 127, N-(4,4-difluorocyclohexyl)-6-(3,5-dimethyl-1H-pyrazol-1-yl)-4-(1H-pyrazol-1-yl)pyridin-2-amine]: the SC100 entry was “++ (++ means 200 nM-1000 nM)”. For the compound `Cc1cc(C)n(-c2nc(NC3CCC(F)(F)CC3)cc(N[C@@H]3CCN(C)C3=O)n2)n1` [Compound 129, (−)-3-((6-((4,4-difluorocyclohexyl)amino)-2-(3,5-dimethyl-1H-pyrazol-1-yl)pyrimidin-4-yl)amino)-1-methylpyrrolidin-2-one], the SC100 entry is on record as “+ (+ means >1 uM)”. `CC(=O)N1CCN(c2cc(NC3CCC(F)(F)C3)nc(-n3nc(C)cc3C)n2)CC1` (stereo not shown) [Compound 130, 1-(4-(6-((3,3-difluorocyclopentyl)amino)-2-(3,5-dimethyl-1H-pyrazol-1-yl)pyrimidin-4-yl)piperazin-1-yl)ethan-1-one]: the SC100 entry is reported as “+ (+ means >1 uM)”. Take `Cc1cc(C)n(-c2nc(NC3CCC(F)(F)CC3)cc(C(N)=O)n2)n1` [Compound 131, 6-((4,4-difluorocyclohexyl)amino)-2-(3,5-dimethyl-1H-pyrazol-1-yl)pyrimidine-4-carboxamide]: the SC100 result was “+ (+ means >1 uM)”. On to `CC(=O)N1CCN(c2cc(N(C)C3CCC(F)(F)CC3)nc(-n3nc(C)cc3C)n2)CC1` [Compound 132, 1-(4-(6-((4,4-difluorocyclohexyl)(methyl)amino)-2-(3,5-dimethyl-1H-pyrazol-1-yl)pyrimidin-4-yl)piperazin-1-yl)ethan-1-one], for which the SC100 result is on record as “++ (++ means 200 nM-1000 nM)”.

With `Cc1cc(C)n(-c2nc(NC3CCC(F)(F)CC3)cc(NC3CCCN(C)C3=O)n2)n1` (stereo not shown) [Compound 133, 3-((6-((4,4-difluorocyclohexyl)amino)-2-(3,5-dimethyl-1H-pyrazol-1-yl)pyrimidin-4-yl)amino)-1-methylpiperidin-2-one], the SC100 result is “+ (+ means >1 uM)”. For the compound `CC(=O)N1CCN(c2cc(NC3CCC(F)(F)CC3)nc(-n3nc(C)cc3C)c2)CC1` [Compound 134, 1-(4-(2-((4,4-difluorocyclohexyl)amino)-6-(3,5-dimethyl-1H-pyrazol-1-yl)pyridin-4-yl)piperazin-1-yl)ethan-1-one], the SC100 entry is recorded as “++ (++ means 200 nM-1000 nM)”.

Consider `Cc1cc(C)n(-c2nc(NC3CCC(F)(F)CC3)cc(C(C)O)n2)n1` (stereo not shown) [Compound 136], for which the SC100 result is recorded as “++ (++ means 200 nM-1000 nM)”. Then `Cc1cc(C)n(-c2nc(CO)cc(NC3CCC(F)(F)CC3)n2)n1` [Compound 137, (6-((4,4-difluorocyclohexyl)amino)-2-(3,5-dimethyl-1H-pyrazol-1-yl)pyrimidin-4-yl)methanol], with “++ (++ means 200 nM-1000 nM)”. Consider `Cc1ccn(-c2nc(NC3CCC(F)(F)CC3)cc(N3CC(C)(O)C3)n2)n1` [Compound 140, 1-(6-((4,4-difluorocyclohexyl)amino)-2-(3-methyl-1H-pyrazol-1-yl)pyrimidin-4-yl)-3-methylazetidin-3-ol], for which the SC100 result was “+ (+ means >1 uM)”. For `Cc1ccn(-c2nc(NC3CCC(F)(F)CC3)cc(NC3COC3)n2)n1` [Compound 141, N4-(4,4-difluorocyclohexyl)-2-(3-methyl-1H-pyrazol-1-yl)-N6-(oxetan-3-yl)pyrimidine-4,6-diamine], the SC100 entry is on record as “++ (++ means 200 nM-1000 nM)”. Under `Cc1cc(C)n(-c2nc(NC3CCC(F)(F)CC3)cc(C(F)F)n2)n1` [Compound 142, N-(4,4-difluorocyclohexyl)-6-(difluoromethyl)-2-(3,5-dimethyl-1H-pyrazol-1-yl)pyrimidin-4-amine] stands “+ (+ means >1 uM)”; under `Cc1ccn(-c2nc(NC3CCC(F)(F)CC3)cc(N3CC(N(C)C)C3)n2)n1` [Compound 143, N-(4,4-difluorocyclohexyl)-6-(3-(dimethylamino)azetidin-1-yl)-2-(3-methyl-1H-pyrazol-1-yl)pyrimidin-4-amine], “++ (++ means 200 nM-1000 nM)”.

In the case of `Cc1cc(NC2CCC(C(F)(F)F)CC2)nc(-n2ccc(C)n2)n1` (stereo not shown) [Compound 144, 6-methyl-2-(3-methyl-1H-pyrazol-1-yl)-N-(4-(trifluoromethyl)cyclohexyl)pyrimidin-4-amine], the SC100 entry is “+ (+ means >1 uM)”.

As for `Cc1cc(C)n(-c2nc(NCc3ncco3)cc(NC3CCC(F)(F)CC3)n2)n1` [Compound 145, N4-(4,4-difluorocyclohexyl)-2-(3,5-dimethyl-1H-pyrazol-1-yl)-N6-(oxazol-2-ylmethyl)pyrimidine-4,6-diamine], the SC100 entry is “+ (+ means >1 uM)”.

With `Cc1ccn(-c2nc(NCC(C)(C)C)cc(NC3CCC(F)(F)CC3)n2)n1` [Compound 146, N4-(4,4-difluorocyclohexyl)-2-(3-methyl-1H-pyrazol-1-yl)-N6-neopentylpyrimidine-4,6-diamine], the SC100 result is reported as “++ (++ means 200 nM-1000 nM)”. On to `Cc1ccn(-c2nc(NC3CCC(F)(F)CC3)cc(NC3CC(F)(F)C3)n2)n1` [Compound 147, N4-(3,3-difluorocyclobutyl)-N6-(4,4-difluorocyclohexyl)-2-(3-methyl-1H-pyrazol-1-yl)pyrimidine-4,6-diamine], for which the SC100 entry is “++ (++ means 200 nM-1000 nM)”.

`Cc1cc(NC2CCC(F)(F)CC2)nc(-n2ccc(C)n2)n1` [Compound 148, N-(4,4-difluorocyclohexyl)-6-methyl-2-(3-methyl-1H-pyrazol-1-yl)pyrimidin-4-amine]: the SC100 entry is “++ (++ means 200 nM-1000 nM)”. Then `CC(=O)N1CCN(c2cc(NC3CCC(C(F)(F)F)CC3)nc(-n3nc(C)cc3C)n2)CC1` (stereo not shown) [Compound 149, 1-(4-(2-(3,5-dimethyl-1H-pyrazol-1-yl)-6-((4-(trifluoromethyl)cyclohexyl)amino)pyrimidin-4-yl)piperazin-1-yl)ethan-1-one], with “++ (++ means 200 nM-1000 nM)”; and `Cc1cc(NC2CCC(F)(F)C2)nc(-n2ccc(C)n2)n1` (stereo not shown) [Compound 150, N-(3,3-difluorocyclopentyl)-6-methyl-2-(3-methyl-1H-pyrazol-1-yl)pyrimidin-4-amine], with “+ (+ means >1 uM)”; and `Cc1ccn(-c2nc(NC3CCC(F)(F)CC3)cc(OC3CN(C(=O)OC(C)(C)C)C3)n2)n1` [Compound 151, tert-butyl 3-((6-((4,4-difluorocyclohexyl)amino)-2-(3-methyl-1H-pyrazol-1-yl)pyrimidin-4-yl)oxy)azetidine-1-carboxylate], with “++ (++ means 200 nM-1000 nM)”.

Consider `Cc1cc(C)n(-c2nc(NC3CCC(F)(F)CC3)cc(C(C)(C)O)n2)n1` [Compound 152, 2-(6-((4,4-difluorocyclohexyl)amino)-2-(3,5-dimethyl-1H-pyrazol-1-yl)pyrimidin-4-yl)propan-2-ol], for which the SC100 entry is “+ (+ means >1 uM)”. Under `Cc1ccn(-c2cc(S(C)(=O)=O)cc(NC3CCC(F)(F)CC3)n2)n1` [Compound 153, N-(4,4-difluorocyclohexyl)-6-(3-methyl-1H-pyrazol-1-yl)-4-(methylsulfonyl)pyridin-2-amine] stands “+ (+ means >1 uM)”.
